Data as given in the supplement of paper PMC10307832.

How the values were obtained:
Assay in all cases: relative viability (nuclei count vs DMSO), 5 days (fraction); higher = more cells survive
[1] = compound: Cn1c(Nc2ccc(C(F)(F)F)cc2)nc2cc(Oc3ccnc(-c4ncc(C(F)(F)F)[nH]4)c3)ccc21 [RAF265] + Cc1nc(Nc2ncc(C(=O)Nc3c(C)cccc3Cl)s2)cc(N2CCN(CCO)CC2)n1 [Dasatinib] (partner 0.075 µM)
How it was run: (§1)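 Lung cancer cell lines in 1536-well plates were dosed by pin tool the day after seeding, either with one drug alone or with a fixed anchor-drug dose plus five library-drug doses (not always all listed) in √10 steps. After 5 days, cells were fixed and their nuclei stained in one step (final 0.05% Triton X-100, 1% formaldehyde, 1 ug/ml Hoechst), then counted on 4× images. Relative viability is the nuclei count in treated wells divided by that in vehicle wells. Values are medians of duplicate plates.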

[2] = compound: Cc1ccc(-n2nc(C(C)(C)C)cc2NC(=O)Nc2ccc(OCCN3CCOCC3)c3ccccc23)cc1 [Doramapimod] + O=C(CCCCCCC(=O)Nc1ccccc1)NO [Vorinostat] (partner 1 µM)
How it was run: as §1

[3] = compound: C1=CC=C2C(=C1)C=CC(=C2SSC3=C(C=CC4=CC=CC=C43)O)O [IPA-3] + Cc1nc(NC(=O)N2CCC[C@H]2C(N)=O)sc1-c1ccnc(C(C)(C)C(F)(F)F)c1 [Alpelisib] (partner 2 µM)
How it was run: as §1

[4] = compound: Cc1ccc(-n2nc(C(C)(C)C)cc2NC(=O)Nc2ccc(OCCN3CCOCC3)c3ccccc23)cc1 [Doramapimod] + CC(=O)Nc1cccc(-n2c(=O)n(C3CC3)c(=O)c3c(Nc4ccc(I)cc4F)n(C)c(=O)c(C)c32)c1 [Trametinib] (partner 0.02 µM)
How it was run: as §1

| Cell Line | relative viability ([1]; first compound 0.01 µM) | relative viability ([1]; first compound 0.03162 µM) | relative viability ([1]; first compound 0.1 µM) | relative viability ([1]; first compound 0.3162 µM) | relative viability ([1]; first compound 1 µM) | relative viability ([2]; first compound 0.02 µM) | relative viability ([2]; first compound 0.06325 µM) | relative viability ([2]; first compound 0.2 µM) | relative viability ([2]; first compound 0.6325 µM) | relative viability ([2]; first compound 2 µM) | relative viability ([3]; first compound 0.2 µM) | relative viability ([3]; first compound 0.6325 µM) | relative viability ([3]; first compound 2 µM) | relative viability ([3]; first compound 6.325 µM) | relative viability ([3]; first compound 20 µM) | relative viability ([4]; first compound 0.02 µM) | relative viability ([4]; first compound 0.06325 µM) | relative viability ([4]; first compound 0.2 µM) | relative viability ([4]; first compound 0.6325 µM) | relative viability ([4]; first compound 2 µM) |
| --- | --- | --- | --- | --- | --- | --- | --- | --- | --- | --- | --- | --- | --- | --- | --- | --- | --- | --- | --- | --- |
| NCI-H2170 | 0.663 | 0.474 | 0.539 | 0.241 | 0.432 | 0.737 | 0.882 | 0.704 | 0.844 | 0.814 | 0.871 | 0.781 | 0.894 | 0.727 | 0.806 | 0.854 | 1.02 | 0.934 | 0.981 | 0.825 |
| NCI-H2342 | 0.319 | 0.349 | 0.298 | 0.276 | 0.288 | 0.761 | 0.747 | 0.806 | 0.849 | 0.829 | – | – | – | – | – | 0.838 | 0.844 | 0.754 | 0.817 | 0.847 |
| LCLC-97TM1 | 0.826 | 0.826 | 0.66 | 0.852 | 0.442 | 0.73 | 0.635 | 0.747 | 0.615 | 0.56 | 0.281 | 0.299 | 0.241 | 0.232 | 0.246 | 0.169 | 0.225 | 0.249 | 0.265 | 0.204 |
| NCI-H1299 | – | – | – | – | – | – | – | – | – | – | 1.07 | 1.07 | 1.02 | 1.07 | 1.06 | – | – | – | – | – |
| NCI-H3122 | 0.463 | 0.937 | 0.904 | 0.669 | 0.521 | 1.13 | 1.07 | 1.12 | 0.849 | 0.859 | 0.797 | 0.798 | 0.804 | 0.856 | 0.776 | 0.26 | 0.206 | 0.216 | 0.219 | 0.279 |
| NCI-H1395 | 0.449 | 0.432 | 0.395 | 0.336 | 0.372 | 0.722 | 0.943 | 0.975 | 0.67 | 0.571 | 1.06 | 1.29 | 1.04 | 1.26 | 1.01 | 0.999 | 0.967 | 1.05 | 1.08 | 0.946 |
| NCI-H2009 | 0.3 | 0.262 | 0.227 | 0.214 | 0.147 | 0.765 | 0.745 | 0.762 | 0.92 | 0.777 | 1.22 | 1.18 | 1.24 | 1.16 | 1.14 | 0.285 | 0.247 | 0.351 | 0.308 | 0.239 |
| NCI-H1651 | 0.417 | 0.408 | 0.368 | 0.398 | 0.263 | 0.514 | 0.604 | 0.602 | 0.623 | 0.552 | 1.01 | – | 0.912 | 0.904 | 1.15 | 0.811 | 0.865 | 0.823 | 0.792 | 0.825 |
| HARA | 0.298 | 0.385 | 0.256 | 0.184 | 0.137 | 0.532 | 0.496 | 0.547 | 0.506 | 0.486 | 0.897 | 0.784 | 0.919 | 0.804 | 1.05 | 0.634 | 0.414 | 0.749 | 0.602 | 0.5 |
| NCI-H1944 | 0.284 | 0.277 | 0.225 | 0.178 | 0.19 | 0.504 | 0.616 | 0.575 | 0.665 | 0.611 | 0.836 | 0.832 | 0.958 | 0.942 | 0.983 | 0.387 | 0.343 | 0.43 | 0.419 | 0.396 |
| Calu-6 | – | – | – | – | – | – | – | – | – | – | 1.08 | 1.01 | 1.01 | 0.928 | 0.924 | – | – | – | – | – |
| NCI-H1703 | – | – | – | – | – | – | – | – | – | – | 0.362 | 0.289 | 0.304 | 0.301 | 0.397 | – | – | – | – | – |
| NCI-H1650 | 0.413 | 0.392 | 0.342 | 0.399 | 0.282 | 0.571 | 0.586 | 0.553 | 0.729 | 0.528 | – | – | – | – | – | 0.612 | 0.665 | 0.734 | 0.763 | 0.496 |
| NCI-H1648 | – | – | – | – | – | 0.348 | 0.405 | 0.52 | 0.709 | 0.224 | – | – | – | – | – | 0.435 | 0.46 | 0.508 | 0.582 | 0.402 |
| NCI-H1792 | 0.848 | 0.83 | 0.759 | 0.575 | 0.293 | – | – | – | – | – | 0.729 | 0.668 | 0.703 | 0.646 | 0.794 | 0.446 | 0.407 | 0.379 | 0.374 | 0.27 |
| ChaGo-K-1 | 0.64 | 0.644 | 0.515 | 0.42 | 0.497 | 0.778 | 0.769 | 0.689 | 0.596 | 0.64 | – | – | – | – | – | 0.753 | 0.811 | 0.851 | 0.844 | 0.725 |
| NCI-H1623 | 0.558 | 0.496 | 0.645 | – | 0.313 | – | – | – | – | – | – | – | – | – | – | – | – | – | – | – |
| HCC-44 | – | – | – | – | – | 1.17 | 1.18 | 1.14 | 1.14 | 1.2 | 0.788 | 0.715 | 0.843 | 0.683 | 0.775 | 1.08 | 1.2 | 1.11 | 1.18 | 1.06 |
| NCI-H522 | 0.847 | 0.9 | 0.811 | 0.919 | 0.764 | 0.963 | 1.05 | 0.871 | 0.845 | 0.874 | – | – | – | – | – | 0.717 | 0.703 | 0.799 | 0.727 | 0.633 |
| ABC-1 | 0.594 | 0.562 | 0.601 | 0.498 | 0.378 | 1.25 | 1.29 | 1.21 | 0.865 | 1.15 | 1.23 | 1.11 | – | 0.881 | 1.07 | – | – | – | – | – |
| SW 900 | 0.595 | 0.548 | 0.552 | 0.297 | 0.272 | 0.571 | 0.514 | 0.546 | 0.584 | 0.436 | – | – | – | – | – | 0.761 | 0.875 | 0.974 | 0.749 | 0.769 |
| IA-LM | – | – | – | – | – | 0.988 | 0.868 | 0.86 | – | 0.745 | 0.884 | 0.735 | 0.731 | 0.703 | 0.738 | – | – | – | – | – |
| A549 | – | – | – | – | – | – | – | – | – | – | 0.926 | 0.705 | 0.838 | 0.753 | 0.745 | – | – | – | – | – |
